# Test results: BindingDB's records for doi:10.7270/Q2JD4V5T (Burnham Center for Chemical Genomics, 2008)
# Target: Ephrin type-A receptor 4 (Mus musculus, UniProt Q03137)
# Assay: placental alkaline phosphatase inhibitors, dose response, counter-screen, biochemical, colorimetric (AID 779)
# Ephrin type-A receptor 4, sequence (Q03137 whole entry): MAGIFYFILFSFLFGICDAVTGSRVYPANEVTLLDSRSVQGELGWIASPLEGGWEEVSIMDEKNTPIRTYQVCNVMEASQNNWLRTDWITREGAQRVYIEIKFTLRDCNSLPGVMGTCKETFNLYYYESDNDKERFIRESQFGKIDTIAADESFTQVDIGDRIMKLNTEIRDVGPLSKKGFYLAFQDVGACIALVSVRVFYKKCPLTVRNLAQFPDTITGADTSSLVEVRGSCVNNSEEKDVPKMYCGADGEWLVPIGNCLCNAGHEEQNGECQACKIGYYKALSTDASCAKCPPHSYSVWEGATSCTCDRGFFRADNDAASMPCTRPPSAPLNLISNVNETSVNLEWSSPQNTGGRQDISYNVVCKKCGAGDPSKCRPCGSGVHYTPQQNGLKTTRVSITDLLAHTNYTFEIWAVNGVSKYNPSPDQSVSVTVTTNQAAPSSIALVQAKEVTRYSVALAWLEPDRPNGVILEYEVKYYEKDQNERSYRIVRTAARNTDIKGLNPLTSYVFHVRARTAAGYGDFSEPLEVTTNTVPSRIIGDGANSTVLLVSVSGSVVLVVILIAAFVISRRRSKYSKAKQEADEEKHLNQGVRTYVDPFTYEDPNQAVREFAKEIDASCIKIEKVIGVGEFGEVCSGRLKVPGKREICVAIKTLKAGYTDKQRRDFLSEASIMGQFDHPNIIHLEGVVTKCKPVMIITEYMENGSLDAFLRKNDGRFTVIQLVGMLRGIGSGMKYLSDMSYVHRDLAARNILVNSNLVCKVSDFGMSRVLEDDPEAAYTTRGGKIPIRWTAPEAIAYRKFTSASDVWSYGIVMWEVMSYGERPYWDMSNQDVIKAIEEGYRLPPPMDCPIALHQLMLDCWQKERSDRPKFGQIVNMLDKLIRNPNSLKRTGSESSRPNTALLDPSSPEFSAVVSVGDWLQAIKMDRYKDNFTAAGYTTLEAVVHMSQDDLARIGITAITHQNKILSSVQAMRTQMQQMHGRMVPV
row,Structure (SMILES),IC50
1,CCCCOP(=O)(OCCCC)C(C#N)C(C)=O (stereo unspecified) [(Z)-2-dibutoxyphosphoryl-3-hydroxy-2-butenenitrile],> 50 µM
2,"CCN1C(=O)C(C=NN=Cc2ccccc2)c2ccc(C3=NNC(=O)CC3)cc21 (stereo unspecified) [benzaldehyde {[1-ethyl-2-oxo-6-(6-oxo-1,4,5,6-tetrahydro-3-pyridazinyl)-1,2-dihydro-3H-indol-3-ylidene]methyl}hydrazone]",> 50 µM
3,"CC(CC(=O)c1ccccc1)N=Nc1nc2ccccc2s1 (stereo unspecified) [(E)-3-(1,3-benzothiazol-2-ylhydrazo)-1-phenyl-2-buten-1-one]",> 50 µM
4,Cc1ccc(Cl)cc1-n1c(C)nc(Cc2ccc([N+](=O)[O-])cc2)c1O [MLS000519000],> 50 µM
5,CCCCN(CCCC)c1nc2ccccc2nc1C(C#N)C(=O)OCC (stereo unspecified) [(2Z)-2-cyano-2-[3-(dibutylamino)-1H-quinoxalin-2-ylidene]acetic acid ethyl ester],> 50 µM

# Target: not listed separately
# Assay: as above
row,Structure (SMILES),IC50
1,O=C1/C(=C\c2nc3ccccc3[nH]2)SC(=S)N1c1ccc(F)cc1 [SMR000163732],> 50 µM
